Experimental data as given in patent US8362201B2 (priority 2000, dated 2013).

Experiments:
[1] = tested on: whole-cell calcium channel currents in isolated cockroach neurons; settings: 0.1 µM; cited from earlier work
mouse sensory neuron ICa = type: cell-based
[2] = tested on: insect versus vertebrate calcium channels
[3] = tested on: bee brain calcium channel (ICa); type: cell-based, Apis mellifera

Substance	inhibition of whole-cell calcium channel currents [1]	maximum ICa inhibition (mouse sensory neuron ICa)	EC50 (mouse sensory neuron ICa; read-out: EC50 for inhibition of a component of ICa)	preference for insect versus vertebrate calcium channels [2]	concentration for maximum inhibition of ICa [3]	EC50 ([3]; read-out: EC50 for inhibition of ICa)
omega-atracotoxin-Hv1a [ω-ACTX-Hv1a]	25±10%	–	–	–	–	–
ω-agatoxin-IVA (KKKCIAKDYGRCKWGGTPCCRGRGCICSIMGTNCECKPRLIMEGLGLA)	–	~40%	~20 nM	2 fold	> 100 nM	10 nM
